Measured values published in US12281149B2, “Modulators of G-protein coupled receptors” (priority 2021, dated 2025).
Where two headings read alike, the source gives them in different places. *1 amine or outer side, *2 acyl side, *3 side chain or, on linkers, in order; H or OH if unused. Where a SMILES comes first, the peptide text is derived from it. Side-chain parts run from the residue outwards. [ ]: non-standard residue; d: D form. The star is where a group is joined. Isobutyryl(2-(3-CN-5-F-Ph)) = CC(C)(C(=O)*)c1cc(F)cc(C#N)c1; C20 diacid = O=C(O)CCCCCCCCCCCCCCCCCCC(=O)*; γGlu = O=C(O)[C@H](CCC(=O)[*:2])N[*:1]; X35 = N#Cc1cc(F)cc(C2(C(=O)*)CCCC2)c1; X17 = CC(C)(C(=O)*)c1ccc(F)c(F)c1; αMeF = C[C@](N)(Cc1ccccc1)C(=O)O; NH(4-Me-phenyl) = Cc1ccc(N*)cc1; X55 = COc1cccc(C(C)(C)C(=O)*)c1; AEEA = NCCOCCOCC(=O)O; Aib = CC(C)(N)C(=O)O; CO = O=C([*:1])[*:2]; GABA = NCCCC(=O)O; βAla = NCCC(=O)O

What was measured:
Assay type in all cases: cell-based
GIP receptor [1] = molecular target: T1, GIP receptor (Homo sapiens, UniProt P48546); assay: HitHunter cAMP assay, GIP receptor; settings: for Emax: read-out: Emax GIP-1R
T1 sequence (P48546 22-466): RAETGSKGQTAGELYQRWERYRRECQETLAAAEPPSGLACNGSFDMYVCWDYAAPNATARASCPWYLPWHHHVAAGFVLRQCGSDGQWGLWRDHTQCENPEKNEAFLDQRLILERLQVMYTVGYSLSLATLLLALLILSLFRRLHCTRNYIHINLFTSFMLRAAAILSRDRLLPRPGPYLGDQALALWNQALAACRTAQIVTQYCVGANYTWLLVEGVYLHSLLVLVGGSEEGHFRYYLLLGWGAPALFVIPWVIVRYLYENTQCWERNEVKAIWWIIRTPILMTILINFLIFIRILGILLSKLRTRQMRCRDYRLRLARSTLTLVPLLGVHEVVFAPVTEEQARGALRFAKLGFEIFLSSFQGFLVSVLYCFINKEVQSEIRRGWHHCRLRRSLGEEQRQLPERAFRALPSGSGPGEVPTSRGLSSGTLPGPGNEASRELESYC

GIP receptor [2] = molecular target: T1, GIP receptor; assay: PathHunter β-arrestin assay, GIP receptor; set-up: host or cells: PathHunter CHO-K1 GIPR β-Arrestin Cell Line
GLP-1 receptor [3] = molecular target: T2, GLP-1 receptor (Homo sapiens, UniProt P43220); assay: PathHunter β-arrestin assay, GLP-1 receptor; set-up: host or cells: PathHunter CHO-K1 GLP1R β-Arrestin Cell Line
GLP-1 receptor [4] = molecular target: T2, GLP-1 receptor; assay: HitHunter cAMP assay, GLP-1 receptor; settings: for Emax: read-out: Emax GLP-1R
[5] = CHO cells stably expressing GIP receptor, cAMP accumulation, 30 min, read-out: EC50 GIP-1R
[6] = CHO cells, cAMP, normalized to maximum signal from GIP (high) and DMSO (low)
[7] = β-arrestin-2 recruitment, PathHunter CHO-K1 GIPR β-Arrestin Cell Line, 90 min at 37° C., normalized to GIP, read-out: GIPR β Arrestin EC50
[8] = β-arrestin-2 recruitment, PathHunter CHO-K1 GLP1R β-Arrestin Cell Line, 90 min at 37° C., normalized to GLP-1, read-out: GLP-1R β Arrestin EC50
[9] = CHO cells stably expressing human GLP-1 receptor, cAMP accumulation, 30 min, read-out: EC50 GLP-1R
[10] = CHO cells, cAMP, normalized to maximum signal from GLP-1 (high) and DMSO (low)

T2 sequence (P43220 24-463): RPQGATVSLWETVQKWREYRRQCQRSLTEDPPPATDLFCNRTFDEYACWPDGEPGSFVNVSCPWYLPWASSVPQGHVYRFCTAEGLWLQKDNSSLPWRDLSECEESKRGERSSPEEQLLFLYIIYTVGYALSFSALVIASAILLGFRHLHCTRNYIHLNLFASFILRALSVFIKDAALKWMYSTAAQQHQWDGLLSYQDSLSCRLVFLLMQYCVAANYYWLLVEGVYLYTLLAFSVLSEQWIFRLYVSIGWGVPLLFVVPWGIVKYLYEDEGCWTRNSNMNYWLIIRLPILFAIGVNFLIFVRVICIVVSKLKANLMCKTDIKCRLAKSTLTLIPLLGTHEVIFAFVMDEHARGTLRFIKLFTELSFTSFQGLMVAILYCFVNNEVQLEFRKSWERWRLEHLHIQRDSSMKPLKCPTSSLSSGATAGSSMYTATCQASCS

Row | SMILES | EC50 (GIP receptor [1]; [5]) | Emax (GIP receptor [1]; [6]) | EC50 (GIP receptor [2]; [7]) | EC50 (GLP-1 receptor [3]; [8]) | EC50 (GLP-1 receptor [4]; [9]) | Emax (GLP-1 receptor [4]; [10]) | EC50 (GIP receptor [1]) | Emax (GIP receptor [1]; CHO) | EC50 (GIP receptor [2]) | EC50 (GLP-1 receptor [3]) | EC50 (GLP-1 receptor [4]) | Emax (GLP-1 receptor [4]; CHO)
1 | CC[C@H](C)[C@H](NC(=O)[C@H](CC(C)C)NC(=O)[C@H](Cc1c[nH]c2ccccc12)NC(=O)[C@H](CCC(N)=O)NC(=O)[C@@H](NC(=O)[C@H](Cc1ccccc1)NC(=O)[C@H](C)NC(=O)[C@H](CCCCNC(=O)COCCOCCNC(=O)COCCOCCNC(=O)CC[C@H](NC(=O)CCCCCCCCCCCCCCCCCCC(=O)O)C(=O)O)NC(=O)[C@H](CCC(N)=O)NC(=O)[C@H](C)NC(=O)[C@@H](NC(=O)[C@H](CCCCN)NC(=O)[C@H](CC(=O)O)NC(=O)[C@H](CC(C)C)NC(=O)C(C)(C)NC(=O)[C@@H](NC(=O)[C@H](CO)NC(=O)[C@H](Cc1ccc(O)cc1)NC(=O)[C@H](CC(=O)O)NC(=O)[C@H](CO)NC(=O)[C@@H](NC(=O)[C@H](Cc1ccccc1)NC(=O)[C@@H](NC(=O)CNC(=O)[C@H](CCC(=O)O)NC(=O)CCNC(=O)C1(c2cc(F)cc(C#N)c2)CCCC1)[C@@H](C)O)[C@@H](C)O)[C@@H](C)CC)[C@@H](C)CC)C(C)C)C(=O)N[C@@H](C)C(=O)NCC(=O)NCC(=O)N1CCC[C@H]1C(=O)N[C@@H](CO)C(=O)N[C@@H](CO)C(=O)NCC(=O)N[C@@H](C)C(=O)N1CCC[C@H]1C(=O)N1CCC[C@H]1C(=O)N1CCC[C@H]1C(=O)N[C@@H](CO)C(N)=O [Compound 164] ({X35-βAla}-EGTFTSDYSI[Aib]LDKIAQK([AEEA-AEEA-γGlu-C20 diacid])AFVQWLIAGGPSSGAPPPS-NH2) | 1 to 10 nM | 106% | > 1000 nM | > 1000 nM | 1 to 10 nM | 112% | – | – | – | – | – | –
2 | CC[C@H](C)[C@H](NC(=O)[C@H](CC(C)C)NC(=O)[C@H](Cc1c[nH]c2ccccc12)NC(=O)[C@H](CCC(N)=O)NC(=O)[C@@H](NC(=O)[C@H](Cc1ccccc1)NC(=O)[C@H](C)NC(=O)[C@H](CCCCNC(=O)COCCOCCNC(=O)COCCOCCNC(=O)CC[C@H](NC(=O)CCCCCCCCCCCCCCCCCCC(=O)O)C(=O)O)NC(=O)[C@H](CCC(N)=O)NC(=O)[C@H](C)NC(=O)[C@@H](NC(=O)[C@H](CCCCN)NC(=O)[C@H](CC(=O)O)NC(=O)[C@H](CC(C)C)NC(=O)C(C)(C)NC(=O)[C@@H](NC(=O)[C@H](CO)NC(=O)[C@H](Cc1ccc(O)cc1)NC(=O)[C@H](CC(=O)O)NC(=O)[C@H](CO)NC(=O)[C@@H](NC(=O)[C@H](Cc1ccccc1)NC(=O)[C@@H](NC(=O)CNC(=O)[C@H](CCC(=O)O)NC(=O)CCNC(=O)C(C)(C)c1ccc(F)c(F)c1)[C@@H](C)O)[C@@H](C)O)[C@@H](C)CC)[C@@H](C)CC)C(C)C)C(=O)N[C@@H](C)C(=O)NCC(=O)NCC(=O)N1CCC[C@H]1C(=O)N[C@@H](CO)C(=O)N[C@@H](CO)C(=O)NCC(=O)N[C@@H](C)C(=O)N1CCC[C@H]1C(=O)N1CCC[C@H]1C(=O)N1CCC[C@H]1C(=O)N[C@@H](CO)C(N)=O [Compound 215] ({X17-βAla}-EGTFTSDYSI[Aib]LDKIAQK([AEEA-AEEA-γGlu-C20 diacid])AFVQWLIAGGPSSGAPPPS-NH2) | 0.1 to 1 nM | 99% | < 1000 nM | > 1000 nM | 0.1 to 1 nM | 98% | – | – | – | – | – | –
3 | CC[C@H](C)[C@H](NC(=O)[C@H](CC(C)C)NC(=O)[C@H](Cc1c[nH]c2ccccc12)NC(=O)[C@H](CCC(N)=O)NC(=O)[C@@H](NC(=O)[C@H](Cc1ccccc1)NC(=O)[C@H](C)NC(=O)[C@H](CCCCNC(=O)COCCOCCNC(=O)COCCOCCNC(=O)CC[C@H](NC(=O)CCCCCCCCCCCCCCCCCCC(=O)O)C(=O)O)NC(=O)[C@H](CCC(N)=O)NC(=O)[C@H](C)NC(=O)[C@@H](NC(=O)[C@H](CCCCN)NC(=O)[C@H](CC(=O)O)NC(=O)[C@H](CC(C)C)NC(=O)C(C)(C)NC(=O)[C@@H](NC(=O)[C@H](CO)NC(=O)[C@H](Cc1ccc(O)cc1)NC(=O)[C@H](CC(=O)O)NC(=O)[C@H](CO)NC(=O)[C@@H](NC(=O)[C@H](Cc1ccccc1)NC(=O)[C@@H](NC(=O)CNC(=O)[C@H](CCC(=O)O)NC(=O)CCCNC(=O)CNC(=O)Nc1ccc(C)cc1)[C@@H](C)O)[C@@H](C)O)[C@@H](C)CC)[C@@H](C)CC)C(C)C)C(=O)N[C@@H](C)C(=O)NCC(=O)NCC(=O)N1CCC[C@H]1C(=O)N[C@@H](CO)C(=O)N[C@@H](CO)C(=O)NCC(=O)N[C@@H](C)C(=O)N1CCC[C@H]1C(=O)N1CCC[C@H]1C(=O)N1CCC[C@H]1C(=O)N[C@@H](CO)C(N)=O [Compound 271] ({NH(4-Me-phenyl)-CO}-G[GABA]EGTFTSDYSI[Aib]LDKIAQK([AEEA-AEEA-γGlu-C20 diacid])AFVQWLIAGGPSSGAPPPS-NH2) | – | – | – | – | – | – | 1 to 10 nM | 105% | < 1000 nM | > 1000 nM | 1 to 10 nM | 94%
4 | CC[C@H](C)[C@H](NC(=O)[C@H](CC(C)C)NC(=O)[C@H](Cc1c[nH]c2ccccc12)NC(=O)[C@H](CCC(N)=O)NC(=O)[C@@H](NC(=O)[C@H](Cc1ccccc1)NC(=O)[C@H](C)NC(=O)[C@H](CCCCNC(=O)COCCOCCNC(=O)COCCOCCNC(=O)CC[C@H](NC(=O)CCCCCCCCCCCCCCCCCCC(=O)O)C(=O)O)NC(=O)[C@H](CCC(N)=O)NC(=O)[C@H](C)NC(=O)[C@@H](NC(=O)[C@H](CCCCN)NC(=O)[C@H](CC(=O)O)NC(=O)[C@H](CC(C)C)NC(=O)C(C)(C)NC(=O)[C@@H](NC(=O)[C@H](CO)NC(=O)[C@H](Cc1ccc(O)cc1)NC(=O)[C@H](CC(=O)O)NC(=O)[C@H](CO)NC(=O)[C@@H](NC(=O)[C@](C)(Cc1ccccc1)NC(=O)[C@@H](NC(=O)CNC(=O)[C@H](CCC(=O)O)NC(=O)CCNC(=O)C(C)(C)c1cc(F)cc(C#N)c1)[C@@H](C)O)[C@@H](C)O)[C@@H](C)CC)[C@@H](C)CC)C(C)C)C(=O)N[C@@H](C)C(=O)NCC(=O)NCC(=O)N1CCC[C@H]1C(=O)N[C@@H](CO)C(=O)N[C@@H](CO)C(=O)NCC(=O)N[C@@H](C)C(=O)N1CCC[C@H]1C(=O)N1CCC[C@H]1C(=O)N1CCC[C@H]1C(=O)N[C@@H](CO)C(N)=O [Compound 235] ({Isobutyryl(2-(3-CN-5-F-Ph))-βAla}-EGT[αMeF]TSDYSI[Aib]LDKIAQK([AEEA-AEEA-γGlu-C20 diacid])AFVQWLIAGGPSSGAPPPS-NH2) | 0.1 to 1 nM | 108% | < 1000 nM | > 1000 nM | 0.1 to 1 nM | 122% | – | – | – | – | – | –
5 | CC[C@H](C)[C@H](NC(=O)[C@H](CC(C)C)NC(=O)[C@H](Cc1c[nH]c2ccccc12)NC(=O)[C@H](CCC(N)=O)NC(=O)[C@@H](NC(=O)[C@H](Cc1ccccc1)NC(=O)[C@H](C)NC(=O)[C@H](CCCCNC(=O)COCCOCCNC(=O)COCCOCCNC(=O)CC[C@H](NC(=O)CCCCCCCCCCCCCCCCCCC(=O)O)C(=O)O)NC(=O)[C@H](CCC(N)=O)NC(=O)[C@H](C)NC(=O)[C@@H](NC(=O)[C@H](CCCCN)NC(=O)[C@H](CC(=O)O)NC(=O)[C@H](CC(C)C)NC(=O)C(C)(C)NC(=O)[C@@H](NC(=O)[C@H](CO)NC(=O)[C@H](Cc1ccc(O)cc1)NC(=O)[C@H](CC(=O)O)NC(=O)[C@H](CO)NC(=O)[C@@H](NC(=O)[C@H](Cc1ccccc1)NC(=O)[C@@H](NC(=O)CNC(=O)[C@H](CCC(=O)O)NC(=O)CCNC(=O)C(C)(C)c1cccc(OC)c1)[C@@H](C)O)[C@@H](C)O)[C@@H](C)CC)[C@@H](C)CC)C(C)C)C(=O)N[C@@H](C)C(=O)NCC(=O)NCC(=O)N1CCC[C@H]1C(=O)N[C@@H](CO)C(=O)N[C@@H](CO)C(=O)NCC(=O)N[C@@H](C)C(=O)N1CCC[C@H]1C(=O)N1CCC[C@H]1C(=O)N1CCC[C@H]1C(=O)N[C@@H](CO)C(N)=O [Compound 209] ({X55-βAla}-EGTFTSDYSI[Aib]LDKIAQK([AEEA-AEEA-γGlu-C20 diacid])AFVQWLIAGGPSSGAPPPS-NH2) | 10 to 100 nM | 105% | > 1000 nM | > 1000 nM | 0.1 to 1 nM | 101% | – | – | – | – | – | –
